# Read-outs that look alike come from different tables or passages of the source.
# What was measured:
# [1] = system: ZF4 (fibroblasts) cell line; assay: CFDA endpoint of AB/CFDA/NR multiplex, membrane stability; assay type: cell-based, zebrafish (Danio rerio); conditions: Danio rerio, Fibroblast
# [2] = ref Comptox, PubChem or DrugBank; cited from earlier work
# [3] = system: ZF4 (fibroblasts) cell line; assay: ATP assay (ATP/LDH multiplex), ATP metabolism; assay type: cell-based, zebrafish (Danio rerio); conditions: Danio rerio, Fibroblast
# [4] = system: zebrafish embryos; design: method as in earlier work; conditions: nominal, cited from earlier work
# [5] = system: zebrafish embryos; assay: animal or person; assay type: in vivo, zebrafish (Danio rerio); conditions: for EC50: Danio rerio
# [6] = system: ZF4 (fibroblasts) cell line; assay: Neutral red, fluorescence (NRf), AB/CFDA/NR multiplex, lysosome stability; assay type: cell-based, zebrafish (Danio rerio); conditions: Danio rerio, Fibroblast
# [7] = system: ZFL (hepatocytes) cell line; assay: cells; assay type: cell-based, zebrafish (Danio rerio); conditions: Danio rerio, Hepatocyte
# [8] = system: ZFL (hepatocytes) cell line; assay: cells; assay type: cell-based, zebrafish (Danio rerio); conditions: Danio rerio, Hepatocyte; remark: listed apart in the source
# [9] = system: ZFL (hepatocytes) cell line; assay: cells; assay type: cell-based, zebrafish (Danio rerio); conditions: Danio rerio, Hepatocyte; remark: listed apart in the source
# [10] = system: ZFL (hepatocytes) cell line; assay: cells; assay type: cell-based, zebrafish (Danio rerio); conditions: Danio rerio, Hepatocyte; remark: listed apart in the source
# [11] = system: ZF4 and ZFL cell lines; assay: Cytotoxicity assays, all endpoints, both cell lines (mean/range); assay type: cell-based, zebrafish (Danio rerio); conditions: 48 h
# [12] = system: ZFL (hepatocytes) cell line; assay: cells; assay type: cell-based, zebrafish (Danio rerio); conditions: Danio rerio, Hepatocyte; remark: listed apart in the source
# [13] = system: zebrafish cell lines vs zebrafish embryo; assay: Potency ratios IC50;x/EC50;x (cytotoxicity assays vs mFET); design: species or system zebrafish (Danio rerio)
# [14] = system: ZF4 (fibroblasts) cell line; assay: BCA assay (MTS/BCA multiplex), protein amount; assay type: cell-based, zebrafish (Danio rerio); conditions: Danio rerio, Fibroblast
# [15] = system: ZF4 (fibroblasts) cell line; assay: MTS assay (MTS/BCA multiplex), NAD(P)H metabolism; assay type: cell-based, zebrafish (Danio rerio); conditions: Danio rerio, Fibroblast
# [16] = system: ZF4 (fibroblasts) cell line; assay: alamarBlue (AB) endpoint of AB/CFDA/NR multiplex, cellular respiration; assay type: cell-based, zebrafish (Danio rerio); conditions: Danio rerio, Fibroblast
# [17] = system: ZFL (hepatocytes) cell line; assay: cells; assay type: cell-based, zebrafish (Danio rerio); conditions: Danio rerio, Hepatocyte; remark: listed apart in the source
# [18] = system: ZFL (hepatocytes) cell line; assay: cells; assay type: cell-based, zebrafish (Danio rerio); conditions: Danio rerio, Hepatocyte; remark: listed apart in the source
# [19] = system: ZF4 (fibroblasts) cell line; assay: Neutral red, absorbance (NRa), AB/CFDA/NR multiplex, lysosome stability; assay type: cell-based, zebrafish (Danio rerio); conditions: Danio rerio, Fibroblast
structure (smiles),measurement,setting,value
"CC1(C)C(C=C(Cl)c2ccc(Cl)cc2)C1C(=O)OC(C#N)c1ccc(F)c(Oc2ccccc2)c1 (centres unmarked) [Flumethrin, flumethrin]",IC50,"[1]; CFDA - ZF4, log10 of IC50, read-out: LogIC50 (converted)",170 µM
same,IC50,"[1]; CFDA - ZF4, read-out: IC50",170 µM
same,IC50,"[1]; ZF4, 48 h exposure, nominal, log10, read-out: logIC50 (log10 IC50;nom) CFDA (converted)",170 µM
same,IC50,"[1]; ZF4, 48 h exposure, nominal, read-out: IC50;nom CFDA",170 µM
same,Physiological charge,[2],0
same,logKoa,[2],11.7
same,logKow,[2],6.97
same,IC50,"[3]; ATP - ZF4, log10 of IC50, read-out: LogIC50 (converted)",317 µM
same,IC50,"[3]; ATP - ZF4, read-out: IC50",317 µM
same,IC50,"[3]; ZF4, 48 h exposure, nominal, log10, read-out: logIC50 (log10 IC50;nom) ATP (converted)",316 µM
same,IC50,"[3]; ZF4, 48 h exposure, nominal, read-out: IC50;nom ATP",317 µM
same,EC50,"[4]; 144 hpf, converted",0.216 µM
same,logEC50 144 hpf,[4]; log10,-6.667 M
same,difference in toxicity (EC50;nom) between 48 hpf and 144 hpf,[5]; 48 hpf time point less sensitive than 144 hpf,approximately the same
same,log EC50;nom (mFET),"[5]; 48 hpf, nominal, log10, listed as Flu",-6.562 M
same,EC50,"[5]; 48 hpf, nominal, log10, read-out: log EC50;nom (mFET) (converted)",0.275 µM
same,EC50,"[5]; 48 hpf, nominal, read-out: EC50;nom (embryo)",0.14 µg/mL
same,EC50,[5]; read-out: EC50 48hpf,0.274 µM
same,EC50,[5]; read-out: EC50;nom (mFET),0.274 µM
same,IC50,"[6]; NR-fluo - ZF4, log10 of IC50, read-out: LogIC50 (converted)",213 µM
same,IC50,"[6]; NR-fluo - ZF4, read-out: IC50",213 µM
same,IC50,"[6]; ZF4, 48 h exposure, nominal, log10, read-out: logIC50 (log10 IC50;nom) NRf (converted)",214 µM
same,IC50,"[6]; ZF4, 48 h exposure, nominal, read-out: IC50;nom NRf",213 µM
same,IC50,"[7]; CFDA - ZFL, log10 of IC50, read-out: LogIC50 (converted)",118 µM
same,IC50,"[7]; CFDA - ZFL, read-out: IC50",118 µM
same,IC50,"[7]; ZFL, 48 h exposure, nominal, log10, read-out: logIC50 (log10 IC50;nom) CFDA (converted)",117 µM
same,IC50,"[7]; ZFL, 48 h exposure, nominal, read-out: IC50;nom CFDA",118 µM
same,IC50,"[8]; BCA - ZFL, log10 of IC50, read-out: LogIC50 (converted)",6130 µM
same,IC50,"[8]; BCA - ZFL, read-out: IC50",6130 µM
same,IC50,"[8]; ZFL, 48 h exposure, nominal, log10, read-out: logIC50 (log10 IC50;nom) BCA (converted)",6170 µM
same,IC50,"[8]; ZFL, 48 h exposure, nominal, read-out: IC50;nom BCA",6130 µM
same,IC50,"[9]; ATP - ZFL, log10 of IC50, read-out: LogIC50 (converted)",441 µM
same,IC50,"[9]; ATP - ZFL, read-out: IC50",441 µM
same,IC50,"[9]; ZFL, 48 h exposure, nominal, log10, read-out: logIC50 (log10 IC50;nom) ATP (converted)",437 µM
same,IC50,"[9]; ZFL, 48 h exposure, nominal, read-out: IC50;nom ATP",441 µM
same,IC50,"[10]; NR-abs - ZFL, log10 of IC50, read-out: LogIC50 (converted)",160 µM
same,IC50,"[10]; NR-abs - ZFL, read-out: IC50",160 µM
same,IC50,"[10]; ZFL, 48 h exposure, nominal, log10, read-out: logIC50 (log10 IC50;nom) NRa (converted)",158 µM
same,IC50,"[10]; ZFL, 48 h exposure, nominal, read-out: IC50;nom NRa",160 µM
same,IC50,"[11]; Danio rerio, read-out: Mean log IC50nom, mean of all cytotoxicity endpoints (without LDH) in ZF4 and ZFL, 48 h, log10 (converted)",229 µM
same,Mean log IC50nom,"[11]; mean of all cytotoxicity endpoints (without LDH) in ZF4 and ZFL, log10, listed as Flu",-3.637 M
same,IC50,"[12]; NR-fluo - ZFL, log10 of IC50, read-out: LogIC50 (converted)",159 µM
same,IC50,"[12]; NR-fluo - ZFL, read-out: IC50",159 µM
same,IC50,"[12]; ZFL, 48 h exposure, nominal, log10, read-out: logIC50 (log10 IC50;nom) NRf (converted)",158 µM
same,IC50,"[12]; ZFL, 48 h exposure, nominal, read-out: IC50;nom NRf",159 µM
same,in vitro toxicity (IC50;free) higher than EC50;nom,[13]; ZF4 NRa endpoint vs embryo,10 fold
same,potency ratio IC50;nom/EC50;nom (median),"[13]; median over cytotoxicity endpoints, nominal, 48 h cells / 48 hpf mFET",698
same,difference in sensitivity between embryo (EC50;nom) and cells (IC50;nom),"[13]; nominal concentrations, higher potency in the mFET",two to three log-scales more sensitive in the mFET
same,"potency ratio IC50;nom/EC50;nom, BCA-ZFL endpoint","[13]; single endpoint BCA-ZFL, less sensitive in the cell-based assay","10,000 fold"
same,IC50,"[14]; BCA - ZF4, log10 of IC50, read-out: LogIC50 (converted)",42.1 µM
same,IC50,"[14]; BCA - ZF4, read-out: IC50",42.1 µM
same,IC50,"[14]; ZF4, 48 h exposure, nominal, log10, read-out: logIC50 (log10 IC50;nom) BCA (converted)",41.7 µM
same,IC50,"[14]; ZF4, 48 h exposure, nominal, read-out: IC50;nom BCA",42.1 µM
same,IC50,"[15]; MTS - ZF4, log10 of IC50, read-out: LogIC50 (converted)",83.1 µM
same,IC50,"[15]; MTS - ZF4, read-out: IC50",83.1 µM
same,IC50,"[15]; ZF4, 48 h exposure, nominal, log10, read-out: logIC50 (log10 IC50;nom) MTS (converted)",83.2 µM
same,IC50,"[15]; ZF4, 48 h exposure, nominal, read-out: IC50;nom MTS",83.1 µM
same,IC50,"[16]; AB - ZF4, log10 of IC50, read-out: LogIC50 (converted)",351 µM
same,IC50,"[16]; AB - ZF4, read-out: IC50",351 µM
same,IC50,"[16]; ZF4, 48 h exposure, nominal, log10, read-out: logIC50 (log10 IC50;nom) AB (converted)",347 µM
same,IC50,"[16]; ZF4, 48 h exposure, nominal, read-out: IC50;nom AB",351 µM
same,IC50,"[17]; AB - ZFL, log10 of IC50, read-out: LogIC50 (converted)",244 µM
same,IC50,"[17]; AB - ZFL, read-out: IC50",244 µM
same,IC50,"[17]; ZFL, 48 h exposure, nominal, log10, read-out: logIC50 (log10 IC50;nom) AB (converted)",245 µM
same,IC50,"[17]; ZFL, 48 h exposure, nominal, read-out: IC50;nom AB",244 µM
same,IC50,"[18]; MTS - ZFL, log10 of IC50, read-out: LogIC50 (converted)",414 µM
same,IC50,"[18]; MTS - ZFL, read-out: IC50",414 µM
same,IC50,"[18]; ZFL, 48 h exposure, nominal, log10, read-out: logIC50 (log10 IC50;nom) MTS (converted)",417 µM
same,IC50,"[18]; ZFL, 48 h exposure, nominal, read-out: IC50;nom MTS",414 µM
same,IC50,"[19]; NR-abs - ZF4, log10 of IC50, read-out: LogIC50 (converted)",104 µM
same,IC50,"[19]; NR-abs - ZF4, read-out: IC50",104 µM
same,IC50,"[19]; ZF4, 48 h exposure, nominal, log10, read-out: logIC50 (log10 IC50;nom) NRa (converted)",105 µM
same,IC50,"[19]; ZF4, 48 h exposure, nominal, read-out: IC50;nom NRa",104 µM
same,IC50,"[19]; ZF4 cell line, NRa endpoint, nominal, read-out: IC50;nom",53.1 µg/mL
